Consider two molecules from ChEMBL document CHEMBL1157577.

In this assay the target is T1, Progesterone receptor (Homo sapiens) (UniProt P06401).
T1 sequence (whole entry): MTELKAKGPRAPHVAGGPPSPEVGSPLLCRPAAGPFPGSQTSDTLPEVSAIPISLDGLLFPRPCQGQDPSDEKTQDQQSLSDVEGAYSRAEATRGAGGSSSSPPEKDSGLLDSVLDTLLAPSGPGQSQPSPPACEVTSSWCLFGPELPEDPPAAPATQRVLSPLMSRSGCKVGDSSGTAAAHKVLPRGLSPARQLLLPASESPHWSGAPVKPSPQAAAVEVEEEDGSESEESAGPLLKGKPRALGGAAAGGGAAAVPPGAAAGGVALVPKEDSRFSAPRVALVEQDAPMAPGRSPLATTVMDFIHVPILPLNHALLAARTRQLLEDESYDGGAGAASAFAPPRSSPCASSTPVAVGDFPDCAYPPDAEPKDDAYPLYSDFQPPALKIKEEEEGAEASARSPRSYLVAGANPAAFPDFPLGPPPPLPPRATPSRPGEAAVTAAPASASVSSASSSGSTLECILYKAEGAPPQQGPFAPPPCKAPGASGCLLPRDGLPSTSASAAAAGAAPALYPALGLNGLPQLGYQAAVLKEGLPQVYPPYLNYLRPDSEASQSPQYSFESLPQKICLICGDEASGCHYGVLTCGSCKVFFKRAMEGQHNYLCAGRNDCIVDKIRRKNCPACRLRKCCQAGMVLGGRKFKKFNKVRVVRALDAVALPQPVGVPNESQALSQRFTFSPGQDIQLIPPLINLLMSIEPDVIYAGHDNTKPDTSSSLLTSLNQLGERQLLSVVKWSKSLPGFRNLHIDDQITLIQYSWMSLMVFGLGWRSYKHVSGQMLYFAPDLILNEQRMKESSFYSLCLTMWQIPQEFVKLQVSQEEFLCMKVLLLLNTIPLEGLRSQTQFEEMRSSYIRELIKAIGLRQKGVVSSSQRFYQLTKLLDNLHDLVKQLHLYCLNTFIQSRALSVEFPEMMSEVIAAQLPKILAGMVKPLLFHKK
Nature of the assay: Antiprogestagenic activity at progesterone receptor in human T47D cells assessed as inhibition of progesterone-induced alkaline phosphatase activity relative to mifepristone. The assay is classed as cell-based. Set-up: scale not given: the % may be the effect or the level left.

For the molecule `CC#C[C@]1(O)CC[C@H]2[C@@H]3CCC4=CC(=O)CCC4=C3[C@@H](c3ccc(N(C)CCC(=O)O)cc3)C[C@@]21C`, the Activity amounted to 0.15%.

With `CC#C[C@]1(O)CC[C@H]2[C@@H]3CCC4=CC(=O)CCC4=C3[C@@H](c3ccc(N(C)CCCCCC(=O)O)cc3)C[C@@]21C`, the Activity is 0.11%.
